The test system of test [1] is Sprague-Dawley rats. Put plainly: Renal ischemia-reperfusion injury. It counts as in vivo. More on the design: RVR (renal vascular resistance): unit not given here. To be noted: I/R + EX-2 (50 or 500 μg/kg iv before 1 hr clamping), after 60 min reperfusion. Here is the method: Sprague-Dawley rats (250-300 g) were anesthetized with Inactin® (120 mg/kg). After deep anesthesia was assured, the rats were cannulated in the trachea with polyethylene (PE) tubing (PE 240), jugular vein, femoral artery, bladder (PE 50 for previous 3 cannulations), and left ureter (stretched PE 50). Once cannulation was completed, a 2 cm flank incision above the left kidney was performed and the renal pelvis and vascular bundle were exposed. The tissue surrounding the left renal artery was gently dissected away from the artery. The exposed renal artery was clamped for 1 hr using a small vascular cross-over clamp.
Just prior to clamping, EX-2 (50 or 500 μg/kg), ketorolac (KETO, 1 mg/kg), or vehicle was administered intravenously (iv) After 1 hr of clamping (ischemia), the clamp was gently removed with care taken to avoid damaging either the renal artery or nerves. An infusion of ^3 H-Inulin (NEN/Dupont; Wilmington, Del.), (0.6 μCi/ml in phosphate buffered saline (PBS)) (2 ml/hr) was initiated at a constant rate of […]. After 60 min of reperfusion, glomerular filtration rate (GFR), renal plasma flow (RPF) and renal vascular resistance (RVR) were assessed in two 30 min collection periods. The kidney was then removed for analysis. Sham operated and clamped rats served as controls for the above group. Contralateral renal function was utilized to determine the stability of the rat's renal function during the measured period.

For test [2], the system named is inducible nitric oxide synthase (INOS). In words: Inducible nitric oxide synthase induction in rat aorta smooth muscle cells (cGMP RIA). To be noted: RASMC induced with LPS, IL-1β or TNF-α; EX-2 0.1 or 1 μM. It counts as cell-based. Here is the method: Rat aorta smooth muscle cells (RASMC) were isolated from male rats (325-350 g) using the previously published procedures of Gelsterfer et al., Circ. Res. 62:749-756 (1988), which is incorporated herein by reference. Cells were positively identified as smooth muscle cells by indirect immunofluorescent staining for anti-α-actin, using a mouse anti-α-actin antibody and anti-mouse IgG FITC conjugate. Cells were grown in T-75 tissue culture flasks (Corning Delbelco's Glass, Inc.; Corning, N.Y.) in 50% F12 and 50% Delbelco's Modified Eagle Medium (DMEM) supplemented with 10% bovine serum, 0.2 g/l L-glutamine, penicillin (100 U/ml) and streptomycin (0.1 mg/ml).
Cells between passages 1-5 were pretreated with one of the following: vehicle, LPS (1 μg/ml), IL-1β (10 U/ml), or TNF-α (100 U/ml) for 6 hr. […] Accumulation of cGMP was determined following exposure to 0.3 mM 3-isobutyl-1-methyl xanthine (IBMX) in the presence or absence of 1 mM L-arginine. […] The HCl extract was analyzed for cGMP by RIA and the NaOH-solubilized cell remnants were used for protein determination.
Male Sprague-Dawley rats were anesthetized with 55 mg/kg pentobarbital IP. […] RASMC were incubated with plasma from control or EX-2-treated animals and the ability of plasma components to inhibit the induction of INOS by LPS or IL-1β was determined as above. […]

The subject of test [3] is male Sprague-Dawley rats. Put plainly: Streptozotocin-induced diabetes. It counts as in vivo. To be noted: STZ 65 mg/kg iv; EX-2 150 μg/kg every 8 hr for 72 hr. The method, then: Male Sprague-Dawley rats were given 65 mg/kg of streptozotocin (STZ) intravenously through the tall vein. Rats were divided into two groups. The first group was administered EX-2, 150 μg/kg every 8 hr for 72 hr and the second group was a control. Blood samples were withdrawn under ether anesthesia every 8 hr for the first 72 hr, then every 12 hr or 24 hr until the end of the observation period. Plasma samples were assayed for glucose using a glucose assay kit (Trinder, Sigma Chemical Co.). As shown in Table VI below EX-2 effect a 72% reduction in blood glucose levels.

Test [4] relates to female Balb/c mice. In words: Arachidonic acid-induced ear swelling. Format: in vivo. Particulars: 100 μg/mouse IP 30 min prior to AA; 60 min after AA application. The method, then:
Experiments were performed using female Balb/c mice weighing 18-23 grams. Saline or 100 μg EX-2 or EX-3 was administered IP, 30 min prior to topical application of arachidonic acid (AA). A 10 μl pipet was used to apply 10 μl AA solution (100 mg/ml ethanol; Calbiochem-Novabiochem; San Diego Calif.) to the inner and outer surfaces of the right ear of each mouse. Ten μl ethanol, alone, was applied to the inner and outer surface of the left ear of each mouse.
Ear thickness was measured with a hand-held spring loaded caliper immediately before and 60 min after AA application. Increase in ear thickness was calculated by subtracting the change observed in the control ear from the change observed in AA-treated ear. The value for each group (saline and control) is the average of the swelling observed in the individual mice in each group. The percent reduction of swelling is based on the swelling observed in the saline control group.

As to “Ac-Nle-Gln-His-(D)Phe-Arg-(D)Trp-Gly-NH2 [EX-2]”, the “GFR (glomerular filtration rate)” value in test [1] (I/R + PBS 0.2 ± 0.1, Sham 1.0 ± 0.1) is given as 0.5 ± 0.1. In test [1] (I/R + PBS 0.8 ± 0.2, Sham 4.2 ± 0.4), the “RPF (renal plasma flow)” value is recorded as 2.3 ± 0.3. Also, the “RVR (renal vascular resistance)” value in test [1] (I/R + PBS 6.6 ± 2.1, Sham 1.0 ± 0.1) was 1.8 ± 0.2. Further, the “INOS: cGMP (pmol/100 mg/15 min), % Reduction of induced increase” value in test [2] is given as 60%. The “STZ Diabetes: Blood Glucose (mg/dl), % Reduction of induced increase” value in test [3] stood at 72%. In addition, the “Reduction in arachidonic acid-induced Ear Swelling” value in test [4] was found to be 72%.

The values above are taken from patent US5760001A, “Cytokine restraining agents and methods of use in pathologies and conditions associated with altered cytokine levels” (Trega Biosciences, Inc., priority 1995, dated 1998).
